ChEMBL document CHEMBL1148456, “Structure-based design and synthesis of non-nucleoside, potent, and orally bioavailable adenosine deaminase inhibitors” (J Med Chem, 2004)
Converted amounts (≈) assume the structure as drawn.

Assays:
[1] = test system: Mus musculus; assay: Antitumor activity after administration (p.o.) in mice U937 cells at a dose of 32 mg/kg twice daily dosing (b.i.d.); type: functional, U-937; conditions: route oral
[2] = test system: Mus musculus; assay: Antitumor activity after administration (p.o.) in mice U937 cells at a dose of 32 mg/kg once daily dosing (u.i.d.); type: functional, U-937; conditions: route oral
[3] = test system: Mus musculus; assay: Antitumor activity after administration (p.o.) in mice U937 cells at a dose of 10 mg/kg twice daily dosing (b.i.d.); type: functional, U-937; conditions: route oral
[4] = test system: Mus musculus; assay: Antitumor activity after administration (i.p.) in mice U937 cells at a dose of 0.025 mg/kg; type: functional, U-937; conditions: route intraperitoneal
[5] = test system: Mus musculus; assay: Antitumor activity after administration (i.p.) in mice U937 cells at a dose of 2.5 mg/kg; conditions: route intraperitoneal
[6] = test system: Mus musculus; assay: Antitumor activity after administration (i.p.) in mice U937 cells at a dose of 0.25 mg/kg; conditions: route intraperitoneal
[7] = In vitro clearance in human liver microsomes; type: ADME, Microsome; conditions: read-out: Clearance
[8] = AUC in rat after po administration at a dose of 10 mg/kg; type: ADME, organism-based; set-up: dose 10 mg/kg, route oral; conditions: plasma, read-out: AUC 0-24h
[9] = Oral bioavailability in rat (dose 10 mg/kg); type: ADME, organism-based; conditions: in vivo
[10] = (§1) In vitro clearance in rat liver microsomes; type: ADME, Microsome; conditions: read-out: Clearance
[11] = Solubility was determined; type: physicochemical
[12] = Oral bioavailability in dog (dose 10 mg/kg); type: ADME, organism-based, Canis lupus familiaris; conditions: in vivo
[13] = Half-life in rat after po administration at a dose of 10 mg/kg; type: ADME, organism-based; set-up: dose 10 mg/kg, route oral; conditions: in vivo
[14] = biological target: T1, Adenosine deaminase (Homo sapiens) (UniProt P00813); conditions: Rattus norvegicus
T1 sequence (whole entry): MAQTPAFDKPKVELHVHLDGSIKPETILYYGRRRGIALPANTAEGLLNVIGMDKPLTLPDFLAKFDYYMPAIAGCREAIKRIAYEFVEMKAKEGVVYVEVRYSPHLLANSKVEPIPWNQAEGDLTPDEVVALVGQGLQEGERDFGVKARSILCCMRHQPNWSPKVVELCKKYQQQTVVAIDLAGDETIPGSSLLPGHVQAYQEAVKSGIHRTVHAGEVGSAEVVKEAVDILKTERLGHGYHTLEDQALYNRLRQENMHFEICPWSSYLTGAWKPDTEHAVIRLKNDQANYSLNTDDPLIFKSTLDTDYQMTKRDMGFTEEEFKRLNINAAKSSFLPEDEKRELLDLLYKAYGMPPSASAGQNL
Description: In vivo anti-inflammatory activity against adenosine deaminase (ADA) in the adjuvant arthritis model in rat (p.o.)

[15] = Maximum plasma concentration in rat after po administration; type: ADME, organism-based; set-up: route oral
[16] = organism: Rattus norvegicus; assay: as §1; type: ADME, Microsome
[17] = (§2) In vitro clearance in dog liver microsomes; type: ADME, Canis lupus familiaris, Microsome; conditions: read-out: Clearance
[18] = test system: Mus musculus; assay: Antitumor activity after administration (p.o.) with U937 cells in mice at a dose of 10 mg/kg; type: functional, U-937; conditions: route oral
[19] = organism: Canis familiaris; assay: as §2; type: ADME, Canis lupus familiaris, Microsome

Row | Structure (SMILES) | CLint scaled [7] [mL/min/kg] | AUC [8] [ng·h/mL] | bioavailability [9] [%] | CLint scaled [10] [mL/min/kg] | Solubility [11] [µg/mL] | bioavailability [12] [%] | half-life [13] [min] | also measured
1 | C[C@H](O)[C@@H](CCOc1ccc2ccccc2c1)n1cnc(C(N)=O)c1.Cl |  |  |  |  |  |  |  | MST [1]: 42.5 days; MST [2]: 38 days; MST [3]: 34 days
2 | OC[C@H]1O[C@@H](n2cnc3c2N=CNC[C@H]3O)C[C@@H]1O [PENTOSTATIN] |  |  |  |  |  |  |  | MST [4]: 28.5 days; MST [5]: 42.5 days; MST [6]: 34 days
3 | C[C@H](O)[C@@H](CCc1cccc2ccccc12)n1cnc(C(N)=O)c1 | 45 | 1370 | 30 | 307 | 481 (≈ 1490 µM) | 38 | 39.6 | 
4 | C[C@H](O)[C@@H](CCc1cccc(Cl)c1Cl)n1cnc(C(N)=O)c1 | 4.5 | 2110 | 44 | 111 | 500 (≈ 1460 µM) | 43 | 99.6 | ED30 [14]: 1.6 mg/kg
5 | Cn1c(CCC(=O)Nc2ccc3ccn(CC[C@H](CO)n4cnc(C(N)=O)c4)c3c2)nc2ccccc21 | 123 | < 100 |  |  | 4.2 (≈ 8.41 µM) |  |  | Cmax [15]: < 100 ng/mL; Clearance [16]: 35 mL/min/kg; CLint scaled [17]: 97 mL/min/kg
6 | Nc1ncnc2c1ncn2[C@@H]1O[C@H](CO)[C@@H](O)[C@@H]1O [VIDARABINE] |  |  |  |  |  |  |  | MST [18]: 23.5 days
7 | C[C@H](O)[C@@H](CCOc1ccc2ccccc2c1)n1cnc(C(N)=O)c1 | 3.8 | 1850 | 42 | 79 | 80 (≈ 236 µM) | 91 | 67.2 | MST [1]: 35.5 days; MST [2]: 30 days; Cmax [15]: 970 ng/mL; Clearance [19]: 11 mL/min/kg; MST [3]: 30 days
